Measured values taken from PMC9114338 (Scientific Reports, 2022).
Where two headings read alike, the source gives them in different places.

Experiments:
[1] = Intravenous TAF pharmacokinetic mouse study (plasma, PBMC, tissue homogenate); assay type: in vivo, C57BL/6 J mice; details: female, C57BL/6 J, mouse, iv, 0.5 mg
Description: C57BL/6 J Mice (9 groups of 4 animals each; 36 mice total) were administered the study product (0.5 mg dose, 0.1 mL) by intravenous (IV) injection. Animals (N = 4) were sacrificed at the following timepoints: Day 1 (1, 3, 6, 12, 24 h), Day 2, 4, 8, and 14. Blood was collected by exsanguination along with select tissue specimens (vide infra).
The isolation of plasma and PBMCs from blood samples was carried out in a laminar flow hood using aseptic techniques, and the entire process was completed in under 45 min to minimize analyte metabolism. Blood was transferred into collection tubes containing sodium citrate (final concentration, 0.4% w/v), diluted using one volume equivalent of 1 × PBS solution, and mixed by inversion. The minimum final volume was 4.0 mL. Prior to the addition of blood samples, Ficoll-Paque media (MilliporeSigma, Burlington, MA, 3.2 mL) was transferred into a 12 mL LeucoSep tube (Greiner, Monroe, NC) and centrifuged at 1000 g for 20 s at room temperature, causing the media to settle just below the porous barrier. The homogenous, diluted blood-PBS mixture was transferred into the prepared LeucoSep tube and centrifuged at 1000 g for 10 min at room temperature, resulting in the formation of three layers above the porous barrier: (A) top layer, consisting of the plasma fraction; (B) middle, interface layer, containing the PBMCs; and (C) thin lower layer, just above the barrier, consisting of Ficoll-Paque media. Layer A (plasma) was transferred to empty 1.5 mL microfuge tubes in 0.5 mL aliquots, and flash-frozen in liquid nitrogen. Layer B (PBMCs) was transferred into an empty 15 mL centrifuge tube and PBS added to the 12 mL mark, followed by gentle inversion mixing. The suspension was centrifuged at 400 g for 15 min, the supernatant removed, and the pellet resuspended in PBS (10 mL) by gentle pipetting. An aliquot (10 µL) was removed from the suspension for cell counting and the remaining sample was centrifuged at 400 g for 15 min. The supernatant was removed without disturbing the cell pellet, which was treated with ice-cold 70% v/v methanol in molecular-grade water (1.0 mL). The mixture was mixed lightly by vortex agitation to lyse the cells, followed by transfer to a 2.0 mL cryovial that was flash-frozen in liquid nitrogen.
Vaginal, rectal, spleen, and thymus tissue samples were collected from sacrificed animals at Day 1 (12, 24 h), Day 4, and 8; rectal tissue samples were not collected at 12 h. The samples were transferred into pre-weighed sample tubes, weighed, and flash-frozen in liquid nitrogen.
PBMC results were normalized to the number of cells and reported as fmol/10^6 cells or as intracellular concentration based on cell volume, in nM. Tissue results were normalized to sample mass and reported as ng mg^-1 or fmol mg^-1.

[2] = MALDI imaging mass spectrometry of dermal tissues adjacent to the implant; assay type: in vivo, C57BL/6 J mice
Description: The used implants, the surrounding capsule, and the encasing dermal tissue were removed as a block in accordance with ISO 10993-6 guidelines, processed and stored, as described elsewhere. Briefly, the capsule was cut longitudinally and rolled open, taking care not to disrupt the architecture of the tissue or to damage the used implant. A portion of the tissue specimen was placed into 4% paraformaldehyde solution (phosphate-buffered at pH 7.2), and stored at 4 °C, for histopathology and two other portions were flash-frozen in liquid nitrogen for drug concentration analysis as well as for drug spatial distribution analysis by MALDI-IMS (vide infra).
Frozen mouse tissue specimens were shipped to Vanderbilt University on dry ice and stored at − 80 °C prior to use. Tissues were removed from the − 80 °C freezer and placed in a − 20 °C cryostat (CM 1900, Leica Biosystems, Buffalo Grove, IL) and sectioned. Tissue samples that had been prepared via removal of the used implant were affixed to the cryostat chuck with optimal cutting temperature (OCT) polymer and were cut on the cryostat into 12 µm thick sections for imaging mass spectrometry and H&E staining.
Tissue samples that still contained the implant in place were embedded in OCT prior to sectioning. In order to minimize the artifactual signal from the TAF powder after sectioning (the act of the cryostat blade cutting through an intact implant distributed residual TAF powder that still remained in the used implant onto the surrounding tissue section), house vacuum was used to remove visible TAF powder, followed by lightly running nitrogen gas over the plate to remove any additional loose powder from the slide.
The tissue sections were thaw-mounted onto indium-tin oxide coated glass slides for imaging (Delta Technologies, Ltd, Loveland, CO). The tissue sections were left to dry for at least 15 min in a desktop vacuum desiccator prior to matrix application. […] For 9AA, four passes were applied at 85 °C in a crisscross pattern, with a 700 mm min^-1 stage velocity, 2 mm track spacing, and 0.15 mL min^-1 flow rate. For DHB the same method was used, except eight passes were applied and the stage velocity was 1300 mm min^-1.
Flash-frozen dermal tissue samples collected adjacent to the TAF implants and sectioned were analyzed with a linear ion trap mass spectrometer equipped with a MALDI source and a nitrogen laser (LTQ XL, Thermo Scientific, Waltham, MA). The structures of compounds of interest are shown in Scheme 1. Targeted MS/MS methods were optimized for each compound using authentic samples as standards, with the final parameters shown in Appendix A under Supplementary Information. Pseudo-selected reaction monitoring mode was used for imaging by isolating precursor ions with a 1 Da window, fragmenting them, and acquiring full product ion mass spectra at each pixel. TFV, TFV-MP, and TFV-DP were analyzed in negative ion mode, while TAF, Metabolite X, and Metabolite Y were analyzed in positive ion mode. In most cases, after imaging, the matrix was removed and the tissue section that had been imaged was H&E stained for better image registration with tissue morphology. Standard images were acquired at either 50 or 100 µm spatial resolution. Reconstructed ion images were generated in ImageQuest software (Thermo Scientific, Waltham, MA) by plotting the intensity of the diagnostic fragment ion or ions as a function of location across the tissue surface.

[3] = subcutaneous dosing of the free drug, humanized mice; cited from earlier work

half-life ([1]; rectal tissue, read-out: Terminal half-life in rectal tissue (NCA) (converted)): 43 h
half-life ([1]; spleen, read-out: Terminal half-life in spleen (NCA) (converted)): 30.5 h
half-life ([1]; thymus, read-out: Terminal half-life in thymus (NCA) (converted)): 20.1 h
half-life ([1]; vaginal tissue, read-out: Terminal half-life in vaginal tissue (NCA) (converted)): 39.1 h
Detection by MALDI-IMS in dermal tissue samples during implant TAF delivery ([2]; all medicated specimens): detected
MALDI-IMS signal and localization with implant in situ ([2]; low-releasing (0.23 mg d^-1) implants, Day 14, 100 µm resolution): most abundant signals
Compound: C[C@H](Cn1cnc2c(N)ncnc21)OCP(=O)(O)O [TFV, tenofovir]
Spatial distribution in dermal tissue sections (MALDI-IMS) ([2]; high-releasing (0.58 mg d^-1) implants, D3–D28): distributed homogeneously throughout the samples
Plasma TFV t1/2 [3]: 14 h
